Results published in the supplement of paper PMC10307832.

Legend:
Assay in all cases: relative viability (nuclei count vs DMSO), 5 days (fraction); higher = more cells survive
BAY61-3606 + OSI-027 = compound: COC1=C(C=C(C=C1)C2=CC3=NC=CN3C(=N2)NC4=C(C=CC=N4)C(=O)N)OC [BAY61-3606] + COc1cccc2cc(-c3nc([C@H]4CC[C@H](C(=O)O)CC4)n4ncnc(N)c34)[nH]c12 [OSI-027] (partner 0.5 µM)
Method in brief: (§1)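 Lung cancer cell lines in 1536-well plates were dosed by pin tool the day after seeding, either with one drug alone or with a fixed anchor-drug dose plus five library-drug doses (not always all listed) in √10 steps. After 5 days, cells were fixed and their nuclei stained in one step (final 0.05% Triton X-100, 1% formaldehyde, 1 ug/ml Hoechst), then counted on 4× images. Relative viability is the nuclei count in treated wells divided by that in vehicle wells. Values are medians of duplicate plates.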

BAY61-3606 + Phenformin = compound: COC1=C(C=C(C=C1)C2=CC3=NC=CN3C(=N2)NC4=C(C=CC=N4)C(=O)N)OC [BAY61-3606] + N=C(N)NC(=N)NCCc1ccccc1 [Phenformin] (partner 250 µM)
Method in brief: as §1

BAY61-3606 + Linsitinib = compound: COC1=C(C=C(C=C1)C2=CC3=NC=CN3C(=N2)NC4=C(C=CC=N4)C(=O)N)OC [BAY61-3606] + C[C@]1(O)C[C@@H](c2nc(-c3ccc4ccc(-c5ccccc5)nc4c3)c3c(N)nccn32)C1 [Linsitinib] (partner 1 µM)
Method in brief: as §1

Doxorubicin + Luminespib = compound: COc1cccc2c1C(=O)c1c(O)c3c(c(O)c1C2=O)C[C@@](O)(C(=O)CO)C[C@@H]3O[C@H]1C[C@H](N)[C@H](O)[C@H](C)O1 [Doxorubicin] + CCNC(=O)c1noc(-c2cc(C(C)C)c(O)cc2O)c1-c1ccc(CN2CCOCC2)cc1 [Luminespib] (partner 0.01 µM)
Method in brief: as §1

Cell Line	relative viability (BAY61-3606 + OSI-027; first compound 0.02 µM)	relative viability (BAY61-3606 + OSI-027; first compound 0.06325 µM)	relative viability (BAY61-3606 + OSI-027; first compound 0.2 µM)	relative viability (BAY61-3606 + OSI-027; first compound 0.6325 µM)	relative viability (BAY61-3606 + OSI-027; first compound 2 µM)	relative viability (BAY61-3606 + Phenformin; first compound 0.02 µM)	relative viability (BAY61-3606 + Phenformin; first compound 0.06325 µM)	relative viability (BAY61-3606 + Phenformin; first compound 0.2 µM)	relative viability (BAY61-3606 + Phenformin; first compound 0.6325 µM)	relative viability (BAY61-3606 + Phenformin; first compound 2 µM)	relative viability (BAY61-3606 + Linsitinib; first compound 0.02 µM)	relative viability (BAY61-3606 + Linsitinib; first compound 0.06325 µM)	relative viability (BAY61-3606 + Linsitinib; first compound 0.2 µM)	relative viability (BAY61-3606 + Linsitinib; first compound 0.6325 µM)	relative viability (BAY61-3606 + Linsitinib; first compound 2 µM)	relative viability (Doxorubicin + Luminespib; first compound 0.001 µM)	relative viability (Doxorubicin + Luminespib; first compound 0.003162 µM)	relative viability (Doxorubicin + Luminespib; first compound 0.01 µM)	relative viability (Doxorubicin + Luminespib; first compound 0.03162 µM)	relative viability (Doxorubicin + Luminespib; first compound 0.1 µM)
LXF-289	0.938	0.834	0.687	0.888	0.825	0.494	0.526	0.462	0.549	0.491	0.906	1.02	0.948	1.05	0.569	0.63	0.576	0.703	0.635	0.658
NCI-H1437	0.941	0.924	0.921	0.936	0.784	0.345	0.312	0.304	0.283	0.284	1.1	1.1	1.01	1.03	0.813	1.01	1.17	1.12	0.832	0.553
HCC-827	0.698	0.845	0.817	0.803	0.787	0.392	0.435	0.389	0.358	0.347	0.971	0.959	0.973	1.05	0.966	0.555	0.379	0.602	0.573	0.566
NCI-H1650	0.702	0.442	0.666	0.686	0.396	0.506	0.351	0.48	0.378	0.224						0.201	0.182	0.203	0.223	0.182
HCC-15	0.704	0.613	0.721	0.693	0.553	0.474	0.457	0.458	0.474	0.454	0.964	0.988	0.814	0.876	0.725		0.304	0.312	0.231	0.222
EKVX	0.862	0.696	0.734	0.554	0.631	0.239	0.228	0.221	0.222	0.234	1.12	0.981	0.99	0.946	0.935	0.784	1.02	0.828	0.847	0.834
NCI-H2126	0.729	0.616	0.751	0.695	0.655	0.547	0.496	0.524	0.491	0.47	0.757	0.687	0.742	0.749	0.691	0.643	0.88	0.817	0.394	0.286
LK-2	0.197	0.16	0.22	0.231	0.185	0.389	0.307	0.368	0.463	0.221	0.487	0.529	0.691	0.834	0.412	0.171	0.215	0.235	0.162	0.16
